Source: US8895756B2, “Bendamustine pharmaceutical compositions” (priority 2005, dated 2014)

Assay: HPLC stability of bendamustine (15 mg/mL, mannitol 25.5 mg/mL) in alcohol/water solutions at 5° C.
Format: physicochemical
Details: 5° C.
Protocol: A sample of each formulation was analyzed by HPLC after 0, 3, 6 and 24 hours when stored at 5° C.

**Q.** What does the source list for `Cl.Cn1c(CCCC(=O)O)nc2cc(N(CCCl)CCCl)ccc21` [bendamustine, 4-{5-[Bis(2-chloroethyl)amino]-1-methyl-2-benzimidazolyl}butyric acid]?
**A.** Dimer (%) (1.9% Ethanol, 0 hours): 0.12%; HP1 (%) (1.9% Ethanol, 0 hours): 0.64%; Purity (% Area) (1.9% Ethanol, 0 hours): 99.11 % Area; Dimer (%) (1.9% Ethanol, 3 hours): 0.14%; HP1 (%) (1.9% Ethanol, 3 hours): 0.90%; Purity (% Area) (1.9% Ethanol, 3 hours): 98.83 % Area; Dimer (%) (1.9% Ethanol, 6 hours): 0.15%; HP1 (%) (1.9% Ethanol, 6 hours): 1.12%; Purity (% Area) (1.9% Ethanol, 6 hours): 98.60 % Area; Dimer (%) (1.9% Ethanol, 24 hours): 0.27%; HP1 (%) (1.9% Ethanol, 24 hours): 3.41%; Purity (% Area) (1.9% Ethanol, 24 hours): 96.16 % Area; Dimer (%) (5% Butanol, 0 hours): 0.13%; HP1 (%) (5% Butanol, 0 hours): 0.49%; Dimer (%) (5% Butanol, 3 hours): 0.14%; Dimer (%) (5% Butanol, 6 hours): 0.14%; HP1 (%) (5% Butanol, 6 hours): 0.91%; Purity (% Area) (5% Butanol, 6 hours): 98.76 % Area; Dimer (%) (5% Butanol, 24 hours): 0.21%; HP1 (%) (5% Butanol, 24 hours): 2.20%; Purity (% Area) (5% Butanol, 24 hours): 97.46 % Area; Dimer (%) (5% Ethanol, 0 hours): 0.12%; HP1 (%) (5% Ethanol, 0 hours): 0.44%; Purity (% Area) (5% Ethanol, 0 hours): 99.31 % Area; Dimer (%) (5% Ethanol, 3 hours): 0.13%; HP1 (%) (5% Ethanol, 3 hours): 0.64%; Purity (% Area) (5% Ethanol, 3 hours): 99.10 % Area; Dimer (%) (5% Ethanol, 6 hours): 0.14%; HP1 (%) (5% Ethanol, 6 hours): 0.86%; Purity (% Area) (5% Ethanol, 6 hours): 98.87 % Area; Dimer (%) (5% Ethanol, 24 hours): 0.25%; HP1 (%) (5% Ethanol, 24 hours): 2.68%; Purity (% Area) (5% Ethanol, 24 hours): 96.89 % Area; Dimer (%) (5% Iso-propanol, 0 hours): 0.13%; HP1 (%) (5% Iso-propanol, 0 hours): 0.48%; Purity (% Area) (5% Iso-propanol, 0 hours): 99.21 % Area; Dimer (%) (5% Iso-propanol, 3 hours): 0.14%; HP1 (%) (5% Iso-propanol, 3 hours): 0.72%; Purity (% Area) (5% Iso-propanol, 3 hours): 98.65 % Area; Dimer (%) (5% Iso-propanol, 6 hours): 0.14%; HP1 (%) (5% Iso-propanol, 6 hours): 1.02%; Purity (% Area) (5% Iso-propanol, 6 hours): 98.56 % Area; Dimer (%) (5% Iso-propanol, 24 hours): 0.26%; HP1 (%) (5% Iso-propanol, 24 hours): 3.35%; Purity (% Area) (5% Iso-propanol, 24 hours): 96.14 % Area; Dimer (%) (5% Methanol, 0 hours): 0.12%; HP1 (%) (5% Methanol, 0 hours): 0.40%; Purity (% Area) (5% Methanol, 0 hours): 99.35 % Area; Dimer (%) (5% Methanol, 3 hours): 0.14%; HP1 (%) (5% Methanol, 3 hours): 0.70%; Purity (% Area) (5% Methanol, 3 hours): 98.97 % Area; Dimer (%) (5% Methanol, 6 hours): 0.14%; HP1 (%) (5% Methanol, 6 hours): 0.95%; Purity (% Area) (5% Methanol, 6 hours): 98.66 % Area; Dimer (%) (5% Methanol, 24 hours): 0.23%; HP1 (%) (5% Methanol, 24 hours): 2.83%; Purity (% Area) (5% Methanol, 24 hours): 96.65 % Area; Dimer (%) (5% Tert-butanol, 0 hours): 0.12%; HP1 (%) (5% Tert-butanol, 0 hours): 0.41%; Purity (% Area) (5% Tert-butanol, 0 hours): 99.34 % Area; Dimer (%) (5% Tert-butanol, 3 hours): 0.14%; HP1 (%) (5% Tert-butanol, 3 hours): 0.64%; Purity (% Area) (5% Tert-butanol, 3 hours): 99.10 % Area; Dimer (%) (5% Tert-butanol, 6 hours): 0.13%; HP1 (%) (5% Tert-butanol, 6 hours): 0.88%; Purity (% Area) (5% Tert-butanol, 6 hours): 98.85 % Area; Dimer (%) (5% Tert-butanol, 24 hours): 0.20%; HP1 (%) (5% Tert-butanol, 24 hours): 2.09%; Purity (% Area) (5% Tert-butanol, 24 hours): 97.58 % Area; Dimer (%) (5% n-Propanol, 0 hours): 0.13%; HP1 (%) (5% n-Propanol, 0 hours): 0.43%; Purity (% Area) (5% n-Propanol, 0 hours): 99.25 % Area; Dimer (%) (5% n-Propanol, 3 hours): 0.15%; HP1 (%) (5% n-Propanol, 3 hours): 0.66%; Purity (% Area) (5% n-Propanol, 3 hours): 99.00 % Area; Dimer (%) (5% n-Propanol, 6 hours): 0.16%; HP1 (%) (5% n-Propanol, 6 hours): 0.94%; Purity (% Area) (5% n-Propanol, 6 hours): 98.72 % Area; Dimer (%) (5% n-Propanol, 24 hours): 0.26%; HP1 (%) (5% n-Propanol, 24 hours): 2.33%; Purity (% Area) (5% n-Propanol, 24 hours): 97.24 % Area; Dimer (%) (10% Butanol, 0 hours): 0.11%; HP1 (%) (10% Butanol, 0 hours): 0.30%; Purity (% Area) (10% Butanol, 0 hours): 99.44 % Area; Dimer (%) (10% Butanol, 3 hours): 0.12%; HP1 (%) (10% Butanol, 3 hours): 0.49%; Purity (% Area) (10% Butanol, 3 hours): 99.18 % Area; Dimer (%) (10% Butanol, 6 hours): 0.12%; HP1 (%) (10% Butanol, 6 hours): 0.64%; Purity (% Area) (10% Butanol, 6 hours): 99.03 % Area; Dimer (%) (10% Butanol, 24 hours): 0.17%; HP1 (%) (10% Butanol, 24 hours): 1.55%; Purity (% Area) (10% Butanol, 24 hours): 98.13 % Area; Dimer (%) (10% Ethanol, 0 hours): 0.11%; HP1 (%) (10% Ethanol, 0 hours): 0.33%; Purity (% Area) (10% Ethanol, 0 hours): 99.44 % Area; Dimer (%) (10% Ethanol, 3 hours): 0.12%; HP1 (%) (10% Ethanol, 3 hours): 0.48%; Purity (% Area) (10% Ethanol, 3 hours): 99.28 % Area; Dimer (%) (10% Ethanol, 6 hours): 0.12%; HP1 (%) (10% Ethanol, 6 hours): 0.65%; Purity (% Area) (10% Ethanol, 6 hours): 99.10 % Area; Dimer (%) (10% Ethanol, 24 hours): 0.18%; HP1 (%) (10% Ethanol, 24 hours): 1.57%; Purity (% Area) (10% Ethanol, 24 hours): 98.03 % Area; Dimer (%) (10% Iso-propanol, 0 hours): 0.12%; HP1 (%) (10% Iso-propanol, 0 hours): 0.37%; Purity (% Area) (10% Iso-propanol, 0 hours): 99.32 % Area; Dimer (%) (10% Iso-propanol, 3 hours): 0.14%; HP1 (%) (10% Iso-propanol, 3 hours): 0.55%; Purity (% Area) (10% Iso-propanol, 3 hours): 99.11 % Area; Dimer (%) (10% Iso-propanol, 6 hours): 0.16%; HP1 (%) (10% Iso-propanol, 6 hours): 0.75%; Purity (% Area) (10% Iso-propanol, 6 hours): 98.85 % Area; Dimer (%) (10% Iso-propanol, 24 hours): 0.21%; HP1 (%) (10% Iso-propanol, 24 hours): 1.92%; Purity (% Area) (10% Iso-propanol, 24 hours): 97.68 % Area; Dimer (%) (10% Methanol, 0 hours): 0.11%; HP1 (%) (10% Methanol, 0 hours): 0.34%; Purity (% Area) (10% Methanol, 0 hours): 99.42 % Area; Dimer (%) (10% Methanol, 3 hours): 0.12%; HP1 (%) (10% Methanol, 3 hours): 0.59%; Purity (% Area) (10% Methanol, 3 hours): 99.01 % Area; Dimer (%) (10% Methanol, 6 hours): 0.12%; HP1 (%) (10% Methanol, 6 hours): 0.80%; Purity (% Area) (10% Methanol, 6 hours): 98.86 % Area; Dimer (%) (10% Methanol, 24 hours): 0.18%; HP1 (%) (10% Methanol, 24 hours): 1.85%; Purity (% Area) (10% Methanol, 24 hours): 97.65 % Area; Dimer (%) (10% Tert-butanol, 0 hours): 0.11%; HP1 (%) (10% Tert-butanol, 0 hours): 0.30%; Purity (% Area) (10% Tert-butanol, 0 hours): 99.46 % Area; Dimer (%) (10% Tert-butanol, 3 hours): 0.12%; HP1 (%) (10% Tert-butanol, 3 hours): 0.48%; Purity (% Area) (10% Tert-butanol, 3 hours): 99.26 % Area; Dimer (%) (10% Tert-butanol, 6 hours): 0.13%; HP1 (%) (10% Tert-butanol, 6 hours): 0.69%; Purity (% Area) (10% Tert-butanol, 6 hours): 99.05 % Area; Dimer (%) (10% Tert-butanol, 24 hours): 0.19%; HP1 (%) (10% Tert-butanol, 24 hours): 1.64%; Purity (% Area) (10% Tert-butanol, 24 hours): 98.04 % Area; Dimer (%) (10% n-Propanol, 0 hours): 0.15%; HP1 (%) (10% n-Propanol, 0 hours): 0.33%; Purity (% Area) (10% n-Propanol, 0 hours): 99.34 % Area; Dimer (%) (10% n-Propanol, 3 hours): 0.14%; HP1 (%) (10% n-Propanol, 3 hours): 0.48%; Purity (% Area) (10% n-Propanol, 3 hours): 99.17 % Area; Dimer (%) (10% n-Propanol, 6 hours): 0.16%
